Data taken from patent publication US20150119410A1, “BIOMARKERS OF RESPONSE TO NAE INHIBITORS” (MILLENNIUM PHARMACEUTICALS, INC., priority 2011, published 2015).

Key:
Format in all cases: cell-based
BxPC-3 = assay: Cell line panel 1 viability screen; details: BxPC-3 (pancreas)
Method: (§1) To support clinical development and identify potential biomarkers of tumor sensitivity or resistance, two large cancer cell line panels (Panel 1, N=653 (McDermott et al. (2007) PNAS 104:19936-19941); Panel 2, N=240 (O'Day et al. (2010) Fourth AACR International Conference on Molecular Diagnostics in Cancer Therapeutic Development)) were treated with MLN4924 and cell viability data (IC50, EC50, and POC—Percentage of Control) were generated.
(§2) Panel 1 (McDermott et al., supra). The cell lines were exposed to three MLN4924 concentrations (20 nM, 200 nM, and 2 μM) for 72 hours. Viability, i.e., cell number, was quantified by measuring fluorescence of a cell-permeant nucleic acid stain. Mean of triplicate values for each sample were taken and compared to DMSO control to calculate percentage of control. In the results, control or no activity value is given a value of about 1, sensitivity is indicated by a value less than 1, with 0 as death of the entire cell population and resistance indicated by a value greater than 1. A continuum of viability values was obtained for each concentration, so some values were selected as cut-offs for final determination of sensitivity or resistance. For example, median POC values of less than the median value of all POC's recorded in the panel (<0.34) indicated sensitivity, values of 0.34 to 0.75 indicated borderline sensitivity, values greater than the 3rd quartile of all POC's in the panel (>0.75) insensitivity or resistance. […] Final judgment of cell line as sensitive, insensitive or resistant was determined by its viability at 2 μM.

MKN45 = assay: Cell line panel 1 viability screen; details: MKN45 (stomach)
Method: as §1, §2

SW1417 = assay: Cell line panel 1 viability screen; details: Homo sapiens; SW1417 (intestine); 2 μM MLN4924, 72 hours; DMSO control about 1
Method: as §1, §2

KU-19-19 = assay: Cell line panel 1 viability screen; details: KU-19-19 (urinary_tract)
Method: as §1, §2

CAPAN-1 = assay: Cell line panel 1 viability screen; details: CAPAN-1 (pancreas)
Method: as §1, §2

CAL-33 = assay: Cell line panel 1 viability screen; details: CAL-33 (upper aerodigestive tract)
Method: as §1, §2

HCT-15 = assay: Cell line panel 1 viability screen; details: Homo sapiens; HCT-15 (intestine); 2 μM MLN4924, 72 hours; DMSO control about 1
Method: as §1, §2

AN3CA = assay: Cell line panel 1 viability screen; details: AN3CA (Uterus)
Method: as §1, §2

NCl-H520 = assay: Cell line panel 1 viability screen; details: NCl-H520 (lung NSCLC); 2 μM MLN4924, 72 hours; DMSO control about 1
Method: as §1, §2

NCl-H1703 = assay: Cell line panel 1 viability screen; details: NCl-H1703 (lung NSCLC); 2 μM MLN4924, 72 hours; DMSO control about 1
Method: as §1, §2

T84 = assay: Cell line panel 1 viability screen; details: Homo sapiens; T84 (intestine); 2 μM MLN4924, 72 hours; DMSO control about 1
Method: as §1, §2

SW 1463 = assay: Cell line panel 1 viability screen
Method: as §1, §2

CaR-1 = assay: Cell line panel 1 viability screen; details: CaR-1 (large_intestine)
Method: as §1, §2

C-33a = assay: Cell line panel 1 viability screen; details: C-33a (Cervix)
Method: as §1, §2

GAMG = assay: Cell line panel 1 viability screen; details: GAMG (central nervous system)
Method: as §1, §2

HT29 = assay: Cell line panel 1 viability screen
Method: as §1, §2

C2BBe1 = assay: Cell line panel 1 viability screen; details: Homo sapiens; C2BBe1 (intestine); 2 μM MLN4924, 72 hours; DMSO control about 1
Method: as §1, §2

SK-MEL-30 = assay: Cell line panel 1 viability screen; details: Homo sapiens; SK-MEL-30 (skin); 2 μM MLN4924, 72 hours; DMSO control about 1
Method: as §1, §2

8505C = assay: Cell line panel 1 viability screen; details: 8505C (thyroid)
Method: as §1, §2

KYSE-180 = assay: Cell line panel 1 viability screen; details: KYSE-180 (oesophagus)
Method: as §1, §2

COCM1 = assay: Cell line panel 1 viability screen
Method: as §1, §2

RCM-1 = assay: Cell line panel 1 viability screen
Method: as §1, §2

NCl-H1581 = assay: Cell line panel 1 viability screen; details: NCl-H1581 (lung NSCLC); 2 μM MLN4924, 72 hours; DMSO control about 1
Method: as §1, §2

p21 = assay: Western blot of p21 in TP53 −/− HCT-116 cells; details: TP53 −/− HCT-116 cells treated with MLN4924
[1] = Homo sapiens, 2 μM MLN4924, 72 hours, DMSO control about 1

SMILES: NS(=O)(=O)OC[C@@H]1C[C@@H](n2ccc3c(N[C@H]4CCc5ccccc54)ncnc32)C[C@@H]1O [MLN4924, ((1S,2S,4R)-4-{4-[(1S)-2,3-dihydro-1H-inden-1-ylamino]-7H-pyrrolo[2,3-d]pyrimidin-7-yl}-2-hydroxycyclopentyl)methyl sulphamate]
- Phenotype (BxPC-3; SMAD4 mutant): insensitive (values of 0.34 to 0.75 indicated borderline sensitivity)
- viability at 2 µM (BxPC-3; [1]): 41.9%
- viability at 2 µM (MKN45; Homo sapiens, MKN-45, 2 μM MLN4924, 72 hours, DMSO control about 1): 36.1%
- Phenotype (MKN45; SMAD4 mutant): insensitive (values of 0.34 to 0.75 indicated borderline sensitivity)
- viability at 2 µM (SW1417): 63.7%
- viability at 2 µM (KU-19-19; [1]): 5.8%
- Phenotype (KU-19-19; KDM6A mutant): sensitive (median POC values of less than the median value of all POC's recorded in the panel (<0.34) indicated sensitivity)
- Phenotype (CAPAN-1; SMAD4 mutant): sensitive?
- viability at 2 µM (CAPAN-1; [1]): 14.7%
- Phenotype (CAL-33; SMAD4 mutant): sensitive (median POC values of less than the median value of all POC's recorded in the panel (<0.34) indicated sensitivity)
- viability at 2 µM (CAL-33; [1]): 14.4%
- viability at 2 µM (HCT-15): 66.5%
- Phenotype (AN3CA; FBXW7 mutant): sensitive (median POC values of less than the median value of all POC's recorded in the panel (<0.34) indicated sensitivity)
- viability at 2 µM (AN3CA; Homo sapiens, AN3-CA, 2 μM MLN4924, 72 hours, DMSO control about 1): 19.4%
- viability at 2 µM (NCl-H520): 55.8%
- viability at 2 µM (NCl-H1703): 11%
- viability at 2 µM (T84): 57.8%
- viability at 2 µM (SW 1463; Homo sapiens, SW 1463 / SW1463 (intestine), 2 μM MLN4924, 72 hours, DMSO control about 1): 89.6%
- Phenotype (SW 1463; SW1463 (Intestine), FBXW7 mutant): resistant (values greater than the 3rd quartile of all POC's in the panel (>0.75) insensitivity or resistance)
- Phenotype (CaR-1; NF2 mutant): sensitive (median POC values of less than the median value of all POC's recorded in the panel (<0.34) indicated sensitivity)
- viability at 2 µM (CaR-1; [1]): 32.4%
- Phenotype (C-33a; FBXW7 mutant): sensitive (median POC values of less than the median value of all POC's recorded in the panel (<0.34) indicated sensitivity)
- viability at 2 µM (C-33a; [1]): 8.22%
- Phenotype (GAMG; SMAD4 mutant): sensitive (median POC values of less than the median value of all POC's recorded in the panel (<0.34) indicated sensitivity)
- viability at 2 µM (GAMG; [1]): 7.21%
- Phenotype (HT29; HT-29 (large_intestine), SMAD4 mutant): insensitive (values of 0.34 to 0.75 indicated borderline sensitivity)
- viability at 2 µM (HT29; Homo sapiens, HT29 / HT-29 (intestine), 2 μM MLN4924, 72 hours, DMSO control about 1): 43.8%
- viability at 2 µM (C2BBe1): 71.6%
- viability at 2 µM (SK-MEL-30): 77.3%
- Phenotype (8505C; NF2 mutant): sensitive (median POC values of less than the median value of all POC's recorded in the panel (<0.34) indicated sensitivity)
- viability at 2 µM (8505C; [1]): 14.1%
- viability at 2 µM (KYSE-180; [1]): 21.5%
- Phenotype (KYSE-180; KDM6A mutant): sensitive (median POC values of less than the median value of all POC's recorded in the panel (<0.34) indicated sensitivity)
- viability at 2 µM (COCM1; COCM1 / CoCM-1 (intestine), 2 μM MLN4924, 72 hours, DMSO control about 1): 114%
- Phenotype (COCM1; CoCM-1 (large_intestine), SMAD4 mutant): resistant (values greater than the 3rd quartile of all POC's in the panel (>0.75) insensitivity or resistance)
- viability at 2 µM (RCM-1; Homo sapiens, RCM-1 (intestine), 2 μM MLN4924, 72 hours, DMSO control about 1): 76.7%
- Phenotype (RCM-1; RCM-1 (Intestine), FBXW7 mutant): resistant (values greater than the 3rd quartile of all POC's in the panel (>0.75) insensitivity or resistance)
- viability at 2 µM (NCl-H1581): 73.7%
- p21 level (Western blots) (p21): still up-regulated
